Measured values published in article PMC5594493, “Antiproliferative factor (APF) binds specifically to sites within the cytoskeleton-associated protein 4 (CKAP4) extracellular domain” (BMC Biochemistry, 2017).

System: full-length CKAP4
Experiment: SPR binding to full-length His-tagged CKAP4
Procedure: FL-CKAP4 was expressed in HEK 293 T cells (ATCC) and similarly purified by IMAC. Briefly, HEK 293 T cells were transfected with pcDNA3.1/V5-His TOPO vector (Life Technologies) expressing FL-CKAP4 using X-tremeGENE 9 transfection reagent (Roche) according to manufacturer’s protocol. Cells were harvested after transient expression (24 h) and held at −80 °C before proceeding to purification. Cell lysate was prepared in PBS buffer containing 10 mM CHAPS, 20 mM imidazole and EDTA-free protease inhibitor cocktail and sonicated before proceeding to protein purification, as described above. All purified proteins were quantitated by the BCA method according to the manufacturer’s protocol using BSA as the standard (ThermoScientific). Because of the varied amino acid compositions of the purified recombinant proteins, the UV (λ280nm) absorbance method was also used for reference.
All SPR experiments were performed on a Biacore X-100 instrument (GE Healthcare) with the chip surface at 25 °C using PBS containing 0.01% Tween-20 as running buffer. CKAP4 recombinant proteins were immobilized individually either by Ni^2+/nitrilotriacetic acid (NTA) chelation on Sensor Chip NTA or by amine-coupling on Sensor Chip CM5, on the Fc2 channel. […] The data were analyzed using Biacore Evaluation software V2.0. […]

“Neu5Acα2 − 3Galβ1 − 3GalNAcα-O-TVPAAVVVA [APF]” was tested, and the binding (CKAP4FL immobilized via His-tag on NTA chip) was “did not generate sufficient binding” and the binding activity (full-length His-tagged CKAP4 purified from mammalian cells) was “did not detect appreciable binding activity”.
